Measured values from patent publication US6906205B2, “Spiro and dispiro 1,2,4-trioxolane antimalarials” (Medicines for Malaria Venture MMV, priority 2002, dated 2005).
≈ marks a conversion by molar mass, not a printed value.

Columns and labels:
[1] = test system: P. falciparum K1 strain (Thailand resistant to chloroquine); test: semiautomated microdilution assay, [3H]-hypoxanthine incorporation, K1 strain; assay type: cell-based, Plasmodium falciparum; settings: K1 strain, 72 h incubation
In short: (§1)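 Compounds were tested against intraerythrocytic parasites taken from asynchronous stock cultures, using semiautomated microdilution. IC50 values were estimated by logit regression analysis.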

[2] = test system: P. falciparum NF54 strain (sensitive to standard antimalarials); test: semiautomated microdilution assay, [3H]-hypoxanthine incorporation, NF54 strain; assay type: cell-based, Plasmodium falciparum; settings: NF54 strain, 72 h incubation
In short: as §1

[3] = test system: ANKA strain of P. berghei; test: single dose STI in vivo screen in infected mice; design: species or system Plasmodium berghei; settings: for Activity (%) po / Activity (%) sc / Activity (%) SSVpo: percent reduction in parasitemia day 3 post-infection, mice; for Activity (%) po / Survival (days) po: single 10 mg/kg po in 3% ethanol and 7% Tween 80; for Activity (%) sc / Survival (days) sc: single 10 mg/kg sc in 3% ethanol and 7% Tween 80; for Activity (%) SSVpo: single po dose in standard suspending vehicle (SSV); for Survival (days) po / Survival (days) sc / Survival (days) SSVpo: untreated control 5.6 ± 0.3; for Survival (days) SSVpo: single po dose in SSV
In short: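 Groups of 3-5 Moro SPF or NMRI mice infected with the ANKA strain of P. berghei received a single dose of trioxolane on day one post-infection. The compound was given in 3% ethanol and 7% Tween 80 or in SSV (0.5% w/v CMC, 0.5% v/v benzyl alcohol, 0.4% v/v Tween 80, 0.9% w/v sodium chloride in water). Antimalarial activity was scored as percent reduction in parasitemia on day three and as survival time versus untreated controls. Survival to day 30 counted as cure.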

Row | Structure (SMILES) | IC50 (ng/ml) K1 [1] | IC50 (ng/ml) NF54 [2] | Activity (%) po [3] | Activity (%) sc [3] | Activity (%) SSVpo [3] | Survival (days) po [3] [days] | Survival (days) sc [3] [days] | Survival (days) SSVpo [3] [days]
1 | O=C(O)c1ccc(C[C@H]2CC[C@]3(CC2)OOC2(O3)C3CC4CC(C3)CC2C4)cc1 (stereo partly drawn) [OZ214] | >10/>10 ng/ml | >10/>10 ng/ml | 44% | 65% | 54% | 6.3 | 7.7 | 7.3
2 | O=C1c2ccccc2C(=O)N1CC[C@H]1CC[C@]2(CC1)OOC1(O2)C2CC3CC(C2)CC1C3 (stereo partly drawn) [OZ215] | 6.4 ng/mL (≈ 14.6 nM) | 7.3 ng/mL (≈ 16.7 nM) | 96% | 39% | 25% | 9.7 | 7.0 | 6.3
3 | c1cc(CN2CCC3(CC2)OOC2(O3)C3CC4CC(C3)CC2C4)ccn1 (stereo not drawn) [OZ216] | 0.40 ng/mL (≈ 1.12 nM) | 0.67 ng/mL (≈ 1.88 nM) | 62% | 99.02% | 69% | 6.3 | 11.0 | 7.7
4 | O=C(C[C@H]1CC[C@]2(CC1)OOC1(O2)C2CC3CC(C2)CC1C3)Nc1nccs1 (stereo partly drawn) [OZ217] | 2.0/2.0 ng/ml | 2.0/2.0 ng/ml | 67% | 98% | 8% | 7.0 | 8.0 | 6.0
5 | O=C(C[C@H]1CC[C@]2(CC1)OOC1(O2)C2CC3CC(C2)CC1C3)N1CCCCC1 (stereo partly drawn) [OZ218] | 2.0 ng/mL (≈ 5.13 nM) | 3.0 ng/mL (≈ 7.7 nM) | 98% | 99.68% | 99.30% | 10.0 | 9.0 | 14.3
6 | c1ccc(CN2CCC3(CC2)OOC2(O3)C3CC4CC(C3)CC2C4)cc1 (stereo not drawn) [OZ220] | 6.9 ng/mL (≈ 19.4 nM) | 4.9 ng/mL (≈ 13.8 nM) | 40% | 99.95% | 0% | 6.0 | 10.0 | 5.3
7 | NC(=O)N[C@H]1CC[C@]2(CC1)OOC1(O2)C2CC3CC(C2)CC1C3 (stereo partly drawn) [OZ221] | >10/>10 ng/ml | >10/>10 ng/ml | 80% | 97% | 87% | 6.3 | 8.0 | 7.0
8 | CC(C)(C)NC(=O)N[C@H]1CC[C@]2(CC1)OOC1(O2)C2CC3CC(C2)CC1C3 (stereo partly drawn) [OZ222] | 3.9 ng/mL (≈ 10.3 nM) | 6.3 ng/mL (≈ 16.6 nM) | 87% | 99.76% | 75% | 7.7 | 10.0 | 7.0
9 | COC(=O)c1cncn1C[C@H]1CC[C@]2(CC1)OOC1(O2)C2CC3CC(C2)CC1C3 (stereo partly drawn) [OZ223] | 4.0 ng/mL (≈ 9.94 nM) | > 10 ng/mL | 89% | 99.57% | 79% | 7.3 | 12.0 | 6.3
10 | COC(=O)c1cn(C[C@H]2CC[C@]3(CC2)OOC2(O3)C3CC4CC(C3)CC2C4)cn1 (stereo partly drawn) [OZ224] | 2.0 ng/mL (≈ 4.97 nM) | 3.0 ng/mL (≈ 7.45 nM) | 0% | 20% | 5% | 6.0 | 5.7 | 5.7
11 | O=C(O)c1cn(C[C@H]2CC[C@]3(CC2)OOC2(O3)C3CC4CC(C3)CC2C4)cn1 (stereo partly drawn) [OZ225] | 7.3 ng/mL (≈ 18.8 nM) | > 10 ng/mL | 0% | 17% | 0% | 5.7 | 6.3 | 5.7
12 | [N-]=[N+]=NCC[C@H]1CC[C@]2(CC1)OOC1(O2)C2CC3CC(C2)CC1C3 (stereo partly drawn) [OZ228] | 2.0 ng/mL (≈ 6 nM) | 2.1 ng/mL (≈ 6.3 nM) | 99.94% | 99.94% | 28% | 10.3 | 14.0 | 6.0
13 | O=C(NC[C@H]1CC[C@]2(CC1)OOC1(O2)C2CC3CC(C2)CC1C3)c1ccccc1C(=O)NC[C@H]1CC[C@]2(CC1)OOC1(O2)C2CC3CC(C2)CC1C3 (stereo partly drawn) [OZ230] | 3.9 ng/mL (≈ 5.44 nM) | 3.6 ng/mL (≈ 5.02 nM) | 0/0/0% | 0/0/0% | 0/0/0% | 5.3 | 5.7 | 5.7
14 | O=C(O)c1cncn1C[C@H]1CC[C@]2(CC1)OOC1(O2)C2CC3CC(C2)CC1C3 (stereo partly drawn) [OZ231] | >10/>10 ng/ml | >10/>10 ng/ml | 0/0/0% | 0/0/0% | 0/0/0% | 5.3 | 6.0 | 5.7
15 | CN(C)C[C@H]1CC[C@]2(CC1)OOC1(O2)C2CC3CC(C2)CC1C3 (stereo partly drawn) [OZ232] | 0.30 ng/mL (≈ 0.933 nM) | 0.50 ng/mL (≈ 1.56 nM) | 76% | 99.94% | 74% | 8.0 | 8.7 | 7.3
